pEC50: −log10 of the molar value.
Experiments:
[1] = target: T1, Mouse FPR2 (Mus musculus, UniProt O88536); test: cAMP inhibition, mouse FPR2/CHO-A12; format: cell-based
T1 construct: expressed in transfected cells; host or cells: CHO-A12
T1 sequence (O88536 1-351): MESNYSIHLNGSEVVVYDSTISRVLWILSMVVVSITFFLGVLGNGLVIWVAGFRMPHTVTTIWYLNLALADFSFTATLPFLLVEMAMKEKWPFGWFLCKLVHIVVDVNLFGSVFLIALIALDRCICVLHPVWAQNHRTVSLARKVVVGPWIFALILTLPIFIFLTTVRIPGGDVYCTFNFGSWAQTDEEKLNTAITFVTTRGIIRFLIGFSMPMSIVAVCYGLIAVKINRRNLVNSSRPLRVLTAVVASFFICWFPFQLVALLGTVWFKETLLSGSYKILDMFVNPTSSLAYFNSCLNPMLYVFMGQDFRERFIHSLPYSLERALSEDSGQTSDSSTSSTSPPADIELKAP
Experimental: [Worded in the source for another species; this species is reported under the same test.] A mixture of forskolin (5 μM final for FPR2 or 10 μM final for FPR1) and IBMX (200 μM final) were added to 384-well Proxiplates (Perkin-Elmer) pre-dotted with test compounds in DMSO (1% final) at final concentrations in the range of 0.1 nM to 10 μM. CHO overexpressing human FPR1 or human FPR2 receptors were cultured in F-12 (Ham's) medium supplemented with 10% qualified FBS, 250 μg/ml zeocin and 300 μg/ml hygromycin (Life Technologies). Reactions were initiated by adding 2,000 human FPR2 cells per well or 4,000 human FPR1 cells per well in Dulbecco's PBS (with calcium and magnesium) (Life Technologies) supplemented with 0.1% BSA (Perkin-Elmer). The reaction mixtures were incubated for 30 min at room temperature. The level of intracellular cAMP was determined using the HTRF HiRange cAMP assay reagent kit (Cisbio) according to manufacturer's instruction. Solutions of cryptate conjugated anti-cAMP and d2 flurorophore-labelled cAMP were made in a supplied lysis buffer separately. […] After a 1 h room temperature incubation, time-resolved fluorescence intensity was measured using the Envision (Perkin-Elmer) at 400 nm excitation and dual emission at 590 nm and 665 nm. […] The potency and activity of Compound 1 to inhibit cAMP production was then determined by fitting to a 4-parametric logistic equation from a plot of cAMP level versus compound concentrations. […]

[2] = tested on: ischemia-reperfusion myocardial infarction in rats; test: Rat model of ischemia-reperfusion myocardial infarction, 6 weeks; format: in vivo
Experimental: In a third model of myocardial infarction, transient coronary artery occlusion followed by reperfusion was carried out in rats to induce myocardial infarction and to assess salvage of myocardium within the area at risk of myocardial infarction. Treatment with orally-administered Compound 1 (0.01, 0.1, 1, and 10 mg/kg, QD) or dosing solution without compound (QD, referred to as vehicle) was initiated 48 hours following myocardial infarction. Rats subjected to thoracotomy but not infarcted were included as surgical “sham” controls. Rats were evaluated 6 weeks following myocardial infarction to assess structure/function relationships. Hearts were removed from rats for histological processing to the extent of myocardial salvage with Compound 1 treatment. The pressure-volume conductance catheter technique was used to evaluate cardiac function.
The effects of Compound 1 on left ventricle and infarct scar remodeling were evaluated in a rat model of ischemia-reperfusion myocardial infarction. Treatments were initiated 48 hr after MI and were continued for 6 weeks. MI was created by transient ligation the left anterior descending artery with a surgical suture for 1 hour followed by reperfusion. Treatments consisted of a suspension vehicle, Compound 1 at 0.01, 0.1, 1 and 10 mg/kg. At the end of 6 weeks of treatment, hearts were removed for histological evaluation of left ventricle structure and scar structure. This is a model of ischemic heart disease.
In addition, the effect of Compound 1 on cardiac function was measured by the pressure-volume conductance catheter technique to assess structure/function relationships. The structure of the infarct wall was measured histologically to determine the extent of myocardial infarction and myocardial tissue salvage. In this model, blood reperfusion to the site of ischemia is designed to salvage myocardium within the area at risk of myocardial infarction. However, in this model, there is potential for additional insult to tissue caused by reperfusion that can stimulate added myocardial necrosis. Therefore, measurement of myocardial salvage within the myocardial infarct zone is an important endpoint in this model. […] Preservation of viable myocardium was obtained at the 0.1, 1 and 10 mg/kg doses (31-41% preservation relative to vehicle, *P<0.05, **P<0.01, ***P<0.001).
A pressure-volume conductance catheter was used to measure left ventricular ejection fraction at the end of the treatment phase. The fraction of blood pumped out of the left ventricle was measured per contraction cycle (i.e., ejection fraction) and was used to assess overall cardiac function following 6 weeks of treatment. […]

[3] = tested on: myocardial infarction in mice; test: Mouse permanent coronary artery occlusion, early infarct composition 3 days post MI; format: in vivo; conditions: 3 mg/kg PO QD
Experimental: In order to understand early changes in the infarct extracellular matrix, collagen remodeling enzymes and their endogenous inhibitors, the effects of 3 mg/kg Compound 1 treatment on the myocardial infarct composition in mice were evaluated 3 days post myocardial infarction. Myocardial infarction was created by permanently ligating the left anterior descending artery with a surgical suture. Treatment (QD, PO; suspension vehicle or Compound 1 at 3 mg/kg) was initiated 24 hours after MI and were continued to 3 days post MI. On day 3, mice received a final dose of treatment and the hearts were removed 2 hours post treatment (i.e., 74 hours after MI) for histological analysis.

COc1cc(F)c([C@@H]2CNC(=O)[C@H]2NC(=O)Nc2ccccc2)c(F)c1 [Compound 1, 1-((3S,4R)-4-(2,6-difluoro-4-methoxyphenyl)-2-oxopyrrolidin-3-yl)-3-phenylurea]
selectivity for mouse FPR2 vs. FPR1 ([1]; CHO cell lines, cAMP): 640 fold
pEC50 ([1]; Mouse FPR2/CHO-A12): 9.22
improvement in left ventricular ejection fraction vs. vehicle (pressure-volume conductance catheter) ([2]; 0.01 mg/kg PO QD, P<0.05): 37%
improvement in left ventricular ejection fraction vs. vehicle (pressure-volume conductance catheter) ([2]; 1 mg/kg PO QD, P<0.01): 51%
preservation of viable myocardium across infarct wall relative to vehicle ([2]; 0.1, 1 and 10 mg/kg PO QD): 31-41%
left ventricular ejection fraction vs. vehicle (pressure-volume conductance catheter) ([2]; other doses (0.1 and 10 mg/kg)): trend towards improved ejection fraction
MMP-2 in infarcted myocardium vs. vehicle [3]: trend towards less MMP-2
TIMP-4 in infarcted tissue vs. vehicle [3]: No differences
average infarct area vs. vehicle [3]: similar
collagen content within the infarct, increase vs. vehicle ([3]; P<0.05): 1.7 fold

From patent US20200069644A1, “NOVEL USE OF A FORMYL PEPTIDE RECEPTOR 2/ LIPOXIN A4 RECEPTOR (FPR2/ALX) AGONIST FOR TREATMENT OF HEART FAILURE” (BRISTOL- MYERS SQUIBB COMPANY, priority 2017, published 2020)
